# “Also recorded” adds a separate entry of the source.
# Experiments:
# [1] = system: L. crispatus; assay: Growth of L. crispatus in AU supplemented with ATP; assay type: cell-based, Lactobacillus crispatus; settings: AU supplemented with different concentrations of ATP, FIG. 8E
# Procedure: As depicted in FIG. 8D, the amount of ATP remaining when L. crispatus was grown in AU supplemented with 0.1 mM ATP for 24 hours was 22.89±0.98 uM, which was less than half the control (49.2±6.3 uM) (P≤0.0005). To further investigate ATP reduction, L. crispatus was cultured in AU supplemented with different concentrations of ATP (FIG. 8E), as well as in AU supplemented with 50% E. coli supernatant (FIG. 8G), and 25% G. vaginalis supernatant (FIGS. 8H and 8J), as potential natural sources of ATP. The growth of L. crispatus was increased by increasing ATP concentration (FIG. 8E), including that emanating from the E. coli and G. vaginalis supernatants (FIGS. 8H and 8J). […] In FIGS. 8A-8L, statistical significance was determined using Tukey's test, p≤0.05, and is designated with three asterisks (p less than 0.05*, 0.01**, 0.001***).
# For investigation the subtherapeutic concentration of ciprofloxacin, the L. crispatus was grown in deMan, Rogosa, Sharpe media (MRS, Difco, MD). Growth curves for these bacteria were generated using a plate reader (Eon Biotek, VT) at OD600 and 37° C. to determine exponential phase.
# [2] = system: E. coli; assay: Growth of E. coli supplemented with ATP; assay type: cell-based, Escherichia coli; settings: FIG. 8F
# [3] = system: primary myofibroblast cells; assay: Myofibroblast populated collagen gel contraction assay; assay type: cell-based
# Procedure: Bacterial supernatants from E. coli, L. crispatus, and L. gasseri strain KE-1 (ATCC Designation No. PTA-125162) were added to a myofibroblast populated collagen matrix, both from pure culture and mixtures with DMEM with 2% FBS. In addition, GABA, ATP and LPS were included as controls. The collagen contraction assay using primary myofibroblast cells seeded on top of a collagen matrix was tested against the bacterial products. […] As depicted in FIG. 12C, pure ATP caused contraction of myofibroblasts in the first hour (30.37%) and continued for 24 hours (68.56%). […] Based on previous literature, it is believed that the contraction maybe caused by E. coli was due to LPS.
# Bladder epithelial cells (5637-ATCC HTB-9) were maintained in RPMI 1640 (Roswell-Park Memorial Institute media—Thermo Fisher Scientific, MA) supplemented with 10% fetal bovine serum (FBS) (Thermo Fisher Scientific, Ma.) and 2 mM L-glutamine (Thermo Fisher Scientific, MA.) at 37° C. and 5% CO2. The media was changed every 48 hours or more regularly if the cells were confluent (90%-100%), after washing by 1×PBS and trypsinization by 0.25% Trypsin-EDTA (1×) (Gibco), with the ratio of 1 to 10. Primary myofibroblast cells were extracted from the palmar fascia during surgery from normal tissue. Primary cultures were maintained in DMEM with 10% fetal bovine serum (FBS; Life Technologies, Carlsbad, CA, USA), 1% L-glutamine (Life Technologies) and 1% antibiotic-antimycotic solution (Life Technologies) at 37° C. in 5% CO2. All primary cell lines were used up to a maximum of four passages, after which they were discarded.
# [4] = system: 5637 cells; assay: Fluorescent microscopy of calcium influx of 5637 cells (FLUO-4); assay type: cell-based, human
# Procedure: Supernatants were collected from cultures grown overnight (24 hours) at 37° C. after reaching stationary phase. Cultures were pelleted by centrifugation at 5000 rpm (Eppendorf Centrifuge 5804 R) for 15 minutes. The supernatant was pH adjusted to 7.0 with 0.1 Molar HCL or NaOH, filter sterilized with 0.22 um sterile syringe filter, and aliquoted and stored at −20 C° until use. In the case of E. coli and E. faecalis, overnight cultures were diluted 1:100 with fresh artificial urine, returned to incubation at 37° C. and sampled at T=1, 2, 3, 4, 5 and 24 hours for testing. […]
# The influx of calcium was measured using the FLUO-4 DIRECT™ Calcium Assay kit (Invitrogen™, CA). […] Cells were counted by using the INVITROGEN COUNTESS AUTOMATED CELL COUNTER (Thermo Fisher Scientific, MA.) per the manufacturers' instructions. […] The effect of treatments was assessed using a NIKON EPIFLUORESCENCE TS2R scope at 10× magnification at 494 nm for excitation and 516 nm for emission for 60 seconds. The image intensity was calculated using ImageJ and is indicative of Ca^2+ influx into the urothelial cell's cytoplasmic space from either the extracellular environment or intracellular Ca^2+ stores (referred to as Ca^2+ influx).
# [5] = system: E. coli; assay: ATP release by E. coli at subtherapeutic ciprofloxacin concentrations; assay type: cell-based, Escherichia coli; settings: concentrations below the MIC of 0.25, 0.125, 0.0625 ug/mL, FIG. 9B
# Procedure: Further testing was completed on E. coli and its release of ATP. Testing was conducted to determine the minimum inhibitory concentration (MIC) and subtherapeutic concentrations of exposure to the antibiotic ciprofloxacin (Cip).
# The release of ATP from bacterial supernatants was measured using an ATP colorimetric/fluorometric assay kit (Biovision Inc, CA). Samples and reagents were prepared according to the protocol provided. The OD numbers were taken by the BIOTEK EON microplate reader. A luminescent assay kit BACTITER-GLO™ Microbial Cell Viability Assay, G8230) was used to quantify the amount of extracellular ATP released by the bacteria into the supernatant and released by the cells into the cell media. The SYNERGY™ H4 Hybrid Multi-Mode Microplate Reader was used to quantify the amount of extracellular ATP.
smiles,measurement,setting,value
"Nc1ncnc2c1ncn2[C@@H]1O[C@H](COP(=O)(O)OP(=O)(O)OP(=O)(O)O)[C@@H](O)[C@H]1O [ATP, adenosine triphosphate]",growth of L. crispatus,[1],increased
same,growth of E. coli,[2],somewhat inhibitory effect
same,contraction of myofibroblasts,"[3]; after 24 hours, sample alone, FIGS. 12A-12C",68.56%
same,contraction of myofibroblasts,"[3]; after five hours of exposure, FIG. 12E",57.5%
same,contraction of myofibroblasts,"[3]; in the first hour, FIG. 12C",30.37%
"NCCCC(=O)O [GABA, γ-aminobutyric acid]",effect on stimulation of calcium influx caused by ATP,"[4]; AU containing 1 uM GABA mixed with ATP in AU, FIG. 10A",reduce the stimulation of calcium influx
same,effect on stimulation of calcium influx caused by E. coli supernatant,"[4]; GABA mixed with E. coli supernatant, FIG. 10B",inhibit the stimulation of calcium influx
same,contraction of myofibroblasts,"[3]; GABA alone, FIG. 12C",did not cause contraction
same,effect on contraction caused by E. coli,"[3]; GABA with E. coli, FIG. 12D",inhibited contraction; also recorded: could inhibit contraction
O=C(O)c1cn(C2CC2)c2cc(N3CCNCC3)c(F)cc2c1=O [ciprofloxacin],ATP released by E. coli,[5],up to 0.0261±0.003 uM
